Assay results published in PubChem BioAssay AID2060362 (Molecular Pharmacology Branch, DTP, NCI, 2025).

System: 128128-338-R-J1-PDC spheroids, viability % test/control
Assay: Anticancer human tumor 128128-338-R-J1-PDC patient-derived melanoma cell line growth inhibition [TAK]
Conditions: spheroids with HUVEC and MSC; for IC50: curve of first compound; for viability, T/C: stronger effect = lower value; active = viability on the fitted dose curve at most 10% of control; inactive = the rest
How it was run: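 Tumor cells were grown as spheroids with HUVEC and hMSC (60:25:15) and treated with targeted agents combined with TAK-243 or ipatasertib. Drugs were tested in half-log steps down from near the clinical Cmax, or from 10 microM where Cmax was unknown.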
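Note: spheroids exposed to compounds for 7 days.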
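Throughout, for viability, T/C: 100% = DMSO vehicle wells.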

CC(=O)Nc1cccc(-n2c(=O)n(C3CC3)c(=O)c3c(Nc4ccc(I)cc4F)n(C)c(=O)c(C)c32)c1 + CC(C)NCC(C(=O)N1CCN(c2ncnc3c2C(C)CC3O)CC1)c1ccc(Cl)cc1
0.348 nM: IC50 (second compound 9.49 µM)
1.62 nM: IC50 (second compound 0.3 µM)
1.25 nM: IC50 (second compound 3 µM)
active: viability, T/C (second compound 0.3 µM, first compound 0.00949 µM) 2.28% | viability, T/C (second compound 0.3 µM, first compound 0.03 µM) 1.04% | viability, T/C (second compound 0.949 µM, first compound 0.00949 µM) 1.76% | viability, T/C (second compound 0.949 µM, first compound 0.03 µM) 0.37% | viability, T/C (second compound 3 µM, first compound 0.00949 µM) 0.36% | viability, T/C (second compound 3 µM, first compound 0.03 µM) 0.28% | viability, T/C (second compound 9.49 µM, first compound 0.003 µM) 0.75% | viability, T/C (second compound 9.49 µM, first compound 0.00949 µM) 0.11% | viability, T/C (second compound 9.49 µM, first compound 0.03 µM) 0.09% | viability, T/C (second compound 30 µM, first compound 0.0003 µM) 10.1% | viability, T/C (second compound 30 µM, first compound 0.000949 µM) 0.5% | viability, T/C (second compound 30 µM, first compound 0.003 µM) 0.25% | viability, T/C (second compound 30 µM, first compound 0.00949 µM) 0.1% | viability, T/C (second compound 30 µM, first compound 0.03 µM) 0.12%
1.76 nM: IC50 (second compound 0.949 µM)
inactive: viability, T/C (second compound 0.3 µM, first compound 94.9 pM) 98.8% | viability, T/C (second compound 0.3 µM, first compound 0.0003 µM) 97.5% | viability, T/C (second compound 0.3 µM, first compound 0.000949 µM) 73.5% | viability, T/C (second compound 0.3 µM, first compound 0.003 µM) 22.7% | viability, T/C (second compound 0.949 µM, first compound 94.9 pM) 100% | viability, T/C (second compound 0.949 µM, first compound 0.0003 µM) 94% | viability, T/C (second compound 0.949 µM, first compound 0.000949 µM) 77.8% | viability, T/C (second compound 0.949 µM, first compound 0.003 µM) 26.2% | viability, T/C (second compound 3 µM, first compound 94.9 pM) 87.3% | viability, T/C (second compound 3 µM, first compound 0.0003 µM) 82.8% | viability, T/C (second compound 3 µM, first compound 0.000949 µM) 61.9% | viability, T/C (second compound 3 µM, first compound 0.003 µM) 12.6% | viability, T/C (second compound 9.49 µM, first compound 94.9 pM) 63.9% | viability, T/C (second compound 9.49 µM, first compound 0.0003 µM) 55% | viability, T/C (second compound 9.49 µM, first compound 0.000949 µM) 16.2% | viability, T/C (second compound 30 µM, first compound 94.9 pM) 20.5%
< 0.0949 nM: IC50 (second compound 30 µM)

CC(C)CC(NC(=O)CNC(=O)c1cc(Cl)ccc1Cl)B1OC(=O)CC(CC(=O)O)(C(=O)O)O1 (stereo not given) + CC(C)NCC(C(=O)N1CCN(c2ncnc3c2C(C)CC3O)CC1)c1ccc(Cl)cc1
4.79 nM: IC50 (second compound 9.49 µM)
5.61 nM: IC50 (second compound 3 µM)
< 0.316 nM: IC50 (second compound 30 µM)
active: viability, T/C (second compound 0.3 µM, first compound 0.0316 µM) 2.27% | viability, T/C (second compound 0.3 µM, first compound 0.1 µM) 0.15% | viability, T/C (second compound 0.949 µM, first compound 0.0316 µM) 1.94% | viability, T/C (second compound 0.949 µM, first compound 0.1 µM) 0.09% | viability, T/C (second compound 3 µM, first compound 0.0316 µM) 1.1% | viability, T/C (second compound 3 µM, first compound 0.1 µM) 0.08% | viability, T/C (second compound 9.49 µM, first compound 0.0316 µM) 0.49% | viability, T/C (second compound 9.49 µM, first compound 0.1 µM) 0.09% | viability, T/C (second compound 30 µM, first compound 0.01 µM) 3.46% | viability, T/C (second compound 30 µM, first compound 0.0316 µM) 0.13% | viability, T/C (second compound 30 µM, first compound 0.1 µM) 0.12%
inactive: viability, T/C (second compound 0.3 µM, first compound 0.000316 µM) 97.4% | viability, T/C (second compound 0.3 µM, first compound 0.001 µM) 100% | viability, T/C (second compound 0.3 µM, first compound 0.00316 µM) 102% | viability, T/C (second compound 0.3 µM, first compound 0.01 µM) 38.1% | viability, T/C (second compound 0.949 µM, first compound 0.000316 µM) 98.6% | viability, T/C (second compound 0.949 µM, first compound 0.001 µM) 101% | viability, T/C (second compound 0.949 µM, first compound 0.00316 µM) 93% | viability, T/C (second compound 0.949 µM, first compound 0.01 µM) 38% | viability, T/C (second compound 3 µM, first compound 0.000316 µM) 85.3% | viability, T/C (second compound 3 µM, first compound 0.001 µM) 94.1% | viability, T/C (second compound 3 µM, first compound 0.00316 µM) 82.7% | viability, T/C (second compound 3 µM, first compound 0.01 µM) 16.9% | viability, T/C (second compound 9.49 µM, first compound 0.000316 µM) 71% | viability, T/C (second compound 9.49 µM, first compound 0.001 µM) 68.7% | viability, T/C (second compound 9.49 µM, first compound 0.00316 µM) 65.1% | viability, T/C (second compound 9.49 µM, first compound 0.01 µM) 23.2% | viability, T/C (second compound 30 µM, first compound 0.000316 µM) 21.9% | viability, T/C (second compound 30 µM, first compound 0.001 µM) 22.4% | viability, T/C (second compound 30 µM, first compound 0.00316 µM) 23.8%
8.01 nM: IC50 (second compound 0.3 µM)
7.78 nM: IC50 (second compound 0.949 µM)
